Active and inactive are the calls of the source. No cut-off for these calls is given here.
Tested on: Hemicentrotus pulcherrimus
Test: Ability of the embryo (sea urchin, Hemicentrotus pulcherrimus) to form spicule deficient plutei when treated with the compound at a concentration of 0.4-12 uM; not active
Type: functional, organism-based

CC1=C[C@@]2(CC1)[C@H](NC=O)[C@H](C(C)C)CC[C@@H]2C
Activity: inactive

Reference: ChEMBL document CHEMBL1134925, “Exiguamide, a new spirocyclic sesquiterpene from the marine sponge Geodia exigua that inhibits cell fate specification during sea urchin embryogenesis” (Bioorg Med Chem Lett, 2002)
